Measurements as given in ChEMBL document CHEMBL3991601, “The target landscape of clinical kinase drugs” (Science, 2017).
Calls of active or inactive are those of the source. Rule as the data show it, for most assays here: actives have a measured Kd and inactives only a lower limit.

target: Receptor-interacting serine/threonine-protein kinase 2 (Homo sapiens, UniProt O43353)
Also: in the data inactive means no Kd found up to 30 µM.

Receptor-interacting serine/threonine-protein kinase 2, sequence (O43353 whole entry): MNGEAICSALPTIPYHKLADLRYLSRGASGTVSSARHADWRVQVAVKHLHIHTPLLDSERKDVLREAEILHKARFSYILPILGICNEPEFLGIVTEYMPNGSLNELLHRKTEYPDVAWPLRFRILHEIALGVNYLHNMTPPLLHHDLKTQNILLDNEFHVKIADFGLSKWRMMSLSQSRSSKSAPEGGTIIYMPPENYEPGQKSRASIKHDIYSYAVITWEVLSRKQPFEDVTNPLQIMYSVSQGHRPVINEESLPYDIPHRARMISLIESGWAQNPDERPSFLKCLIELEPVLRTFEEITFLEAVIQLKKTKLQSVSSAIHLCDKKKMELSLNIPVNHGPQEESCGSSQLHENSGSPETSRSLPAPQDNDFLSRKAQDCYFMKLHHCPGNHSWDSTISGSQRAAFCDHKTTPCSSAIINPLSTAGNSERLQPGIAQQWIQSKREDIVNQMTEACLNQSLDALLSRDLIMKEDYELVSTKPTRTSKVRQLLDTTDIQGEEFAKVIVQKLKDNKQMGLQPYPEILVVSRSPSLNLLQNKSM

Structure (SMILES)	Kd
CC(C)Nc1cc(-c2c[nH]c(C(=O)N[C@H](CO)c3cccc(Cl)c3)c2)c(Cl)cn1 [ULIXERTINIB]	> 30 µM (inactive)
CC[C@@H]1C(=O)N(C)c2cnc(Nc3ccc(C(=O)N[C@H]4CC[C@H](N5CCN(CC6CC6)CC5)CC4)cc3OC)nc2N1C(C)C [VOLASERTIB]	> 30 µM (inactive)
CCn1c(=O)c(-c2cc[nH]n2)cc2c(C)nc(N)nc21 [VOXTALISIB]	> 30 µM (inactive)
O=C(Nc1ccc(-c2ccnc(Nc3ccc(N4CCOCC4)cc3)n2)cc1)C1CCCN1 (stereo not given) [XL-019]	> 30 µM (inactive)

target: Tyrosine-protein kinase HCK (Homo sapiens, UniProt P08631)
Sequence (P08631 whole entry): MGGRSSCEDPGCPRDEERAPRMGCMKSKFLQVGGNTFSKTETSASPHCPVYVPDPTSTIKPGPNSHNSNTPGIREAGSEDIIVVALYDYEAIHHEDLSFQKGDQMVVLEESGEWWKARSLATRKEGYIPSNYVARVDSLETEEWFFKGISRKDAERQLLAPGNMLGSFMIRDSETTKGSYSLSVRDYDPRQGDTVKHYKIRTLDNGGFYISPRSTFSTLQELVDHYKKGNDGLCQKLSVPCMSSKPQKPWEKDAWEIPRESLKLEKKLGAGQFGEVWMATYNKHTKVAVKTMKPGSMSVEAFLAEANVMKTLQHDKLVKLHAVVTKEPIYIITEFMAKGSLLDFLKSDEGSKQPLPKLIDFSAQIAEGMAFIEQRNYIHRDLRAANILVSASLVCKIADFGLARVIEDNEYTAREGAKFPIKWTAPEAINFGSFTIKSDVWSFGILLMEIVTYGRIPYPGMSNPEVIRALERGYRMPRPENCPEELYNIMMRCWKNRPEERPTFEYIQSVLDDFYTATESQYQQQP

Structure (SMILES)	Kd
CC(C)Nc1cc(-c2c[nH]c(C(=O)N[C@H](CO)c3cccc(Cl)c3)c2)c(Cl)cn1 [ULIXERTINIB]	> 30 µM (inactive)
CC[C@@H]1C(=O)N(C)c2cnc(Nc3ccc(C(=O)N[C@H]4CC[C@H](N5CCN(CC6CC6)CC5)CC4)cc3OC)nc2N1C(C)C [VOLASERTIB]	> 30 µM (inactive)
CCn1c(=O)c(-c2cc[nH]n2)cc2c(C)nc(N)nc21 [VOXTALISIB]	> 30 µM (inactive)
O=C(Nc1ccc(-c2ccnc(Nc3ccc(N4CCOCC4)cc3)n2)cc1)C1CCCN1 (stereo not given) [XL-019]	> 30 µM (inactive)

target: T1, Mitogen-activated protein kinase kinase kinase kinase 2 (Homo sapiens, UniProt Q12851)
T1 sequence (Q12851 whole entry): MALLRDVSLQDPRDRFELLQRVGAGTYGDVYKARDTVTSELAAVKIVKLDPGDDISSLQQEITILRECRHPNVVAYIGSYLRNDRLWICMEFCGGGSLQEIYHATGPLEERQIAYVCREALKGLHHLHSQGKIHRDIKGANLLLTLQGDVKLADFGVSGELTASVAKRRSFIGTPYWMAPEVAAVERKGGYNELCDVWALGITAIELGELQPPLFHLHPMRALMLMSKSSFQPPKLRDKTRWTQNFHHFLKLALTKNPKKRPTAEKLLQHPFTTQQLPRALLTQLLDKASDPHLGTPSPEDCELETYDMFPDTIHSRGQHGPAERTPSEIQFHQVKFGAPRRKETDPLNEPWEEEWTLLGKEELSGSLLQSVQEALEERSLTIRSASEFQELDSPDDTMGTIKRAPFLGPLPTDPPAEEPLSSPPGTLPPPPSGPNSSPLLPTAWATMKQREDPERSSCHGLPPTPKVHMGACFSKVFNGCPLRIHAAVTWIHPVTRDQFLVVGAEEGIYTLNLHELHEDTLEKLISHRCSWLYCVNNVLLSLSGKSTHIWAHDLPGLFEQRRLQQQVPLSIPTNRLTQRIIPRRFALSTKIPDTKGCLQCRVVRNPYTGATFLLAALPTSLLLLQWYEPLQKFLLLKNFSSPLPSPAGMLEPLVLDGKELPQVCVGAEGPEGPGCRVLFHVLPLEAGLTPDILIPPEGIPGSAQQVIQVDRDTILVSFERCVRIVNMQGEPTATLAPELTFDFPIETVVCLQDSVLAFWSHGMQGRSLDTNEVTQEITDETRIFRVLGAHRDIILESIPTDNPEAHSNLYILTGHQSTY

Structure (SMILES)	Kd
CC(C)Nc1cc(-c2c[nH]c(C(=O)N[C@H](CO)c3cccc(Cl)c3)c2)c(Cl)cn1 [ULIXERTINIB]	> 30 µM (inactive)
CC[C@@H]1C(=O)N(C)c2cnc(Nc3ccc(C(=O)N[C@H]4CC[C@H](N5CCN(CC6CC6)CC5)CC4)cc3OC)nc2N1C(C)C [VOLASERTIB]	> 30 µM (inactive)
CCn1c(=O)c(-c2cc[nH]n2)cc2c(C)nc(N)nc21 [VOXTALISIB]	> 30 µM (inactive)
O=C(Nc1ccc(-c2ccnc(Nc3ccc(N4CCOCC4)cc3)n2)cc1)C1CCCN1 (stereo not given) [XL-019]	> 30 µM (inactive)

target: Protein kinase C delta type (Homo sapiens, UniProt Q05655)
Sequence (Q05655 whole entry): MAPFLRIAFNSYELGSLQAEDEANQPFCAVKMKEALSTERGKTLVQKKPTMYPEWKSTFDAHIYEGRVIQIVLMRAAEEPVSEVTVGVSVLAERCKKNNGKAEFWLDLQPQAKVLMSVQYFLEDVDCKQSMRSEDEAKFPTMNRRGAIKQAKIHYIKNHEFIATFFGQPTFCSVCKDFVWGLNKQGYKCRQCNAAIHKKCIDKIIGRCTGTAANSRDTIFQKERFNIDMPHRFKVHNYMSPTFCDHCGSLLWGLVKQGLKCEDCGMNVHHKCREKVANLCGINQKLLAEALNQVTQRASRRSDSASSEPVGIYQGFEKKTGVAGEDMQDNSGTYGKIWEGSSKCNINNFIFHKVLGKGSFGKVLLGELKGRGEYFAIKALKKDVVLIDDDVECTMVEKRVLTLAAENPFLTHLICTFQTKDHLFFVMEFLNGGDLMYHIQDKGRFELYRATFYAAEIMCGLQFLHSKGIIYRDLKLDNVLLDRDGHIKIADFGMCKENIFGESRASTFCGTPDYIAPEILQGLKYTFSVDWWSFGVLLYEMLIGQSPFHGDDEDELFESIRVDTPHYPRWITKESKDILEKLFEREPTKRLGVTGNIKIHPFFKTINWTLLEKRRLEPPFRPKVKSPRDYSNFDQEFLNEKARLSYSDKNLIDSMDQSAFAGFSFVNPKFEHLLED

Structure (SMILES)	Kd
CC(C)Nc1cc(-c2c[nH]c(C(=O)N[C@H](CO)c3cccc(Cl)c3)c2)c(Cl)cn1 [ULIXERTINIB]	> 30 µM (inactive)
CC[C@@H]1C(=O)N(C)c2cnc(Nc3ccc(C(=O)N[C@H]4CC[C@H](N5CCN(CC6CC6)CC5)CC4)cc3OC)nc2N1C(C)C [VOLASERTIB]	> 30 µM (inactive)
CCn1c(=O)c(-c2cc[nH]n2)cc2c(C)nc(N)nc21 [VOXTALISIB]	> 30 µM (inactive)
O=C(Nc1ccc(-c2ccnc(Nc3ccc(N4CCOCC4)cc3)n2)cc1)C1CCCN1 (stereo not given) [XL-019]	> 30 µM (inactive)

target: T2, Serine/threonine-protein kinase Nek2 (Homo sapiens, UniProt P51955)
T2 sequence (P51955 whole entry): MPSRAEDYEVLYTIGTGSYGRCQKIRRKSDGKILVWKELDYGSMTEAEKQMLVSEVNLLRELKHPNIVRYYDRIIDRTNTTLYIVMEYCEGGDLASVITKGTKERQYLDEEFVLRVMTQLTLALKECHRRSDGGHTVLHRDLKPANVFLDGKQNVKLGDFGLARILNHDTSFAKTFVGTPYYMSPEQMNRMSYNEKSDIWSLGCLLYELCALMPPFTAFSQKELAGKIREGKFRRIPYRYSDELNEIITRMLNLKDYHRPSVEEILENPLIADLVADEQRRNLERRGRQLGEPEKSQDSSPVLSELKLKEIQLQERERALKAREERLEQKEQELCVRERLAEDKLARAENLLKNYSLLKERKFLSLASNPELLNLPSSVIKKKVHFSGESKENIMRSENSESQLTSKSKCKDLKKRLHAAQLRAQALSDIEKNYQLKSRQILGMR

Structure (SMILES)	Kd
CC(C)Nc1cc(-c2c[nH]c(C(=O)N[C@H](CO)c3cccc(Cl)c3)c2)c(Cl)cn1 [ULIXERTINIB]	> 30 µM (inactive)
CC[C@@H]1C(=O)N(C)c2cnc(Nc3ccc(C(=O)N[C@H]4CC[C@H](N5CCN(CC6CC6)CC5)CC4)cc3OC)nc2N1C(C)C [VOLASERTIB]	> 30 µM (inactive)
CCn1c(=O)c(-c2cc[nH]n2)cc2c(C)nc(N)nc21 [VOXTALISIB]	> 30 µM (inactive)
O=C(Nc1ccc(-c2ccnc(Nc3ccc(N4CCOCC4)cc3)n2)cc1)C1CCCN1 (stereo not given) [XL-019]	> 30 µM (inactive)

target: Cyclin-dependent kinase 3 (Homo sapiens, UniProt Q00526)
Sequence (Q00526 whole entry): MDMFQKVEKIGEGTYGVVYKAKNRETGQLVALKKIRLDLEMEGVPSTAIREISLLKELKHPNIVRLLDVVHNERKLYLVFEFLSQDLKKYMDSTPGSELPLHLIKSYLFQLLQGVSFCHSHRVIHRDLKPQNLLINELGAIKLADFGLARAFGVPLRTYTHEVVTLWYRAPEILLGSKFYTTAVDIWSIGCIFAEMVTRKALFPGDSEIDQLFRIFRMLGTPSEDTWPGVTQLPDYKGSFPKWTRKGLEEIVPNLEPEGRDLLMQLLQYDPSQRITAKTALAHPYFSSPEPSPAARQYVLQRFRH

Structure (SMILES)	Kd
CC(C)Nc1cc(-c2c[nH]c(C(=O)N[C@H](CO)c3cccc(Cl)c3)c2)c(Cl)cn1 [ULIXERTINIB]	> 30 µM (inactive)
CC[C@@H]1C(=O)N(C)c2cnc(Nc3ccc(C(=O)N[C@H]4CC[C@H](N5CCN(CC6CC6)CC5)CC4)cc3OC)nc2N1C(C)C [VOLASERTIB]	> 30 µM (inactive)
CCn1c(=O)c(-c2cc[nH]n2)cc2c(C)nc(N)nc21 [VOXTALISIB]	> 30 µM (inactive)
O=C(Nc1ccc(-c2ccnc(Nc3ccc(N4CCOCC4)cc3)n2)cc1)C1CCCN1 (stereo not given) [XL-019]	> 30 µM (inactive)

target: Midasin (Homo sapiens, UniProt Q9NU22)

Structure (SMILES)	Kd
CC(C)Nc1cc(-c2c[nH]c(C(=O)N[C@H](CO)c3cccc(Cl)c3)c2)c(Cl)cn1 [ULIXERTINIB]	> 30 µM (inactive)
CC[C@@H]1C(=O)N(C)c2cnc(Nc3ccc(C(=O)N[C@H]4CC[C@H](N5CCN(CC6CC6)CC5)CC4)cc3OC)nc2N1C(C)C [VOLASERTIB]	> 30 µM (inactive)
CCn1c(=O)c(-c2cc[nH]n2)cc2c(C)nc(N)nc21 [VOXTALISIB]	> 30 µM (inactive)
O=C(Nc1ccc(-c2ccnc(Nc3ccc(N4CCOCC4)cc3)n2)cc1)C1CCCN1 (stereo not given) [XL-019]	> 30 µM (inactive)

target: Mitogen-activated protein kinase 7 (Homo sapiens, UniProt Q13164)
Sequence (Q13164 whole entry): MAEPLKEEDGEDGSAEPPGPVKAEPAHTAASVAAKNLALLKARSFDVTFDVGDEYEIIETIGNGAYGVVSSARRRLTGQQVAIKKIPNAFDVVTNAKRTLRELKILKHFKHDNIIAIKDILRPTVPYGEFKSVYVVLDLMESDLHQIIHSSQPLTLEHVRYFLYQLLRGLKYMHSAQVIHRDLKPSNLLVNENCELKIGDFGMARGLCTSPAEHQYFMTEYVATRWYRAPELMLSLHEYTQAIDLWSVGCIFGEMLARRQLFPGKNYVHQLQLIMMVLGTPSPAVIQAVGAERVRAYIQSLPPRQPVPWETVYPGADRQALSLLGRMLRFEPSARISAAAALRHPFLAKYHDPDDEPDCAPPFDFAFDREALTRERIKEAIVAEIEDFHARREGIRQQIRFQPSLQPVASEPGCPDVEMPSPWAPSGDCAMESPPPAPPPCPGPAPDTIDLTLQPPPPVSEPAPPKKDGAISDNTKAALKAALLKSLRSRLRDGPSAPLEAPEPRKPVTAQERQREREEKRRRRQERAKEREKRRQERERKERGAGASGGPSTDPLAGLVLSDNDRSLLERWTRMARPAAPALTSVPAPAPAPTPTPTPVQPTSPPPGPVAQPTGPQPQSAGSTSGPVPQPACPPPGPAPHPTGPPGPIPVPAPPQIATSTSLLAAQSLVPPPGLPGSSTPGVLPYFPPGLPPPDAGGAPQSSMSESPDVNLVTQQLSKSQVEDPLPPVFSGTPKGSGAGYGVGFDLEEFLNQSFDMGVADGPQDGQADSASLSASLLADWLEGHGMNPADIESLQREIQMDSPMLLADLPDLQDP

Structure (SMILES)	Kd
CC(C)Nc1cc(-c2c[nH]c(C(=O)N[C@H](CO)c3cccc(Cl)c3)c2)c(Cl)cn1 [ULIXERTINIB]	> 30 µM (inactive)
CC[C@@H]1C(=O)N(C)c2cnc(Nc3ccc(C(=O)N[C@H]4CC[C@H](N5CCN(CC6CC6)CC5)CC4)cc3OC)nc2N1C(C)C [VOLASERTIB]	> 30 µM (inactive)
CCn1c(=O)c(-c2cc[nH]n2)cc2c(C)nc(N)nc21 [VOXTALISIB]	> 30 µM (inactive)
O=C(Nc1ccc(-c2ccnc(Nc3ccc(N4CCOCC4)cc3)n2)cc1)C1CCCN1 (stereo not given) [XL-019]	> 30 µM (inactive)

target: T3, Serine/threonine-protein kinase LATS1 (Homo sapiens, UniProt O95835)
T3 sequence (O95835 whole entry): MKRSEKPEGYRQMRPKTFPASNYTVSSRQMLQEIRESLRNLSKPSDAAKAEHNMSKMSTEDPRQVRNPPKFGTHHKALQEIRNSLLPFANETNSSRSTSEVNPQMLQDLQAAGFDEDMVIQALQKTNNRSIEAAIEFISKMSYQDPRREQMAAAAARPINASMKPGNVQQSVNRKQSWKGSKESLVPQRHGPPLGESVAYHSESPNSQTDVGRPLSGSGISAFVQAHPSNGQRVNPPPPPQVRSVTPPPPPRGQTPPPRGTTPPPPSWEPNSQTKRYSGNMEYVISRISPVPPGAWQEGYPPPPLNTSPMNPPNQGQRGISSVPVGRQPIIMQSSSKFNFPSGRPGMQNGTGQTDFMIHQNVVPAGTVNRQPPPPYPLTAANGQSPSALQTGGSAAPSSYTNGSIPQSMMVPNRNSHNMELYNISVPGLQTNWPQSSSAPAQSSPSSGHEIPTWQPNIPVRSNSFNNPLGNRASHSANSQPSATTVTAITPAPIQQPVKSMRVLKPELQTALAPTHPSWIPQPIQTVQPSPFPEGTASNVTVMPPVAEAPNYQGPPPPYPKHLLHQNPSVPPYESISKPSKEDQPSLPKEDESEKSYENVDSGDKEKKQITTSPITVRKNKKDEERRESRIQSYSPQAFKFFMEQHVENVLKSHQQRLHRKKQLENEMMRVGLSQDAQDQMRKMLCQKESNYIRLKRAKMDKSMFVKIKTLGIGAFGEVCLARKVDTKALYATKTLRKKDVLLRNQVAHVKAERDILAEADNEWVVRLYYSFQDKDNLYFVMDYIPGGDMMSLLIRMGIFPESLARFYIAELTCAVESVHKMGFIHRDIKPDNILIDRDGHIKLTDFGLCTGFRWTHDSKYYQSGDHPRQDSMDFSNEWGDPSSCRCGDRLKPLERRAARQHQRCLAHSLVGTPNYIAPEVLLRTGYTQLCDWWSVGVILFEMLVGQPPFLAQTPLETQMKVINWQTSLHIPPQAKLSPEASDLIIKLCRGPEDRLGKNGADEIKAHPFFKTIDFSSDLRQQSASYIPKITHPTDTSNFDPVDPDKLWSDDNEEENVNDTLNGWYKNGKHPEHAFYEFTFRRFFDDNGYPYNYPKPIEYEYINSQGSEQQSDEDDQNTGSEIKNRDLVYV

Structure (SMILES)	Kd
CC(C)Nc1cc(-c2c[nH]c(C(=O)N[C@H](CO)c3cccc(Cl)c3)c2)c(Cl)cn1 [ULIXERTINIB]	> 30 µM (inactive)
CC[C@@H]1C(=O)N(C)c2cnc(Nc3ccc(C(=O)N[C@H]4CC[C@H](N5CCN(CC6CC6)CC5)CC4)cc3OC)nc2N1C(C)C [VOLASERTIB]	> 30 µM (inactive)
CCn1c(=O)c(-c2cc[nH]n2)cc2c(C)nc(N)nc21 [VOXTALISIB]	> 30 µM (inactive)
O=C(Nc1ccc(-c2ccnc(Nc3ccc(N4CCOCC4)cc3)n2)cc1)C1CCCN1 (stereo not given) [XL-019]	3.79 µM (active)

target: LIM domain kinase 2 (Homo sapiens, UniProt P53671)
Sequence (P53671 whole entry, the tested form may be a part): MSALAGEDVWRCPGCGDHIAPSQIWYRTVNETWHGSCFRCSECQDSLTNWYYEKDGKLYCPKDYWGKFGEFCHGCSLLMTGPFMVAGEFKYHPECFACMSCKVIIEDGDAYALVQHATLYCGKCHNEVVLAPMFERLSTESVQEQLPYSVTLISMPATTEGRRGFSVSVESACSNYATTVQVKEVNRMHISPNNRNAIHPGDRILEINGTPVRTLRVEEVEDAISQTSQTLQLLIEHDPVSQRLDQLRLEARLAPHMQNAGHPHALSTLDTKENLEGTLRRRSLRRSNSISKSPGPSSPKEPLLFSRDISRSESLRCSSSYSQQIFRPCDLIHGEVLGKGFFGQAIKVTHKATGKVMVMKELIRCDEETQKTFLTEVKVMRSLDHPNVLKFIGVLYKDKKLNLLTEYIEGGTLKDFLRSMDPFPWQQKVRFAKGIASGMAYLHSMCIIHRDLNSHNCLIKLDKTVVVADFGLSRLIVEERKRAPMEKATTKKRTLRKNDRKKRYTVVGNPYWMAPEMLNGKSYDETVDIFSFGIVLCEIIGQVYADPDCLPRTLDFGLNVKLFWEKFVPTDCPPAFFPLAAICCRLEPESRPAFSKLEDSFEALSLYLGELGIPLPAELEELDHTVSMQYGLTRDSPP

Structure (SMILES)	Kd
CC(C)Nc1cc(-c2c[nH]c(C(=O)N[C@H](CO)c3cccc(Cl)c3)c2)c(Cl)cn1 [ULIXERTINIB]	> 30 µM (inactive)
CC[C@@H]1C(=O)N(C)c2cnc(Nc3ccc(C(=O)N[C@H]4CC[C@H](N5CCN(CC6CC6)CC5)CC4)cc3OC)nc2N1C(C)C [VOLASERTIB]	> 30 µM (inactive)
CCn1c(=O)c(-c2cc[nH]n2)cc2c(C)nc(N)nc21 [VOXTALISIB]	> 30 µM (inactive)
O=C(Nc1ccc(-c2ccnc(Nc3ccc(N4CCOCC4)cc3)n2)cc1)C1CCCN1 (stereo not given) [XL-019]	> 30 µM (inactive)
